Test results from US9249116B2, “Enzyme-activating compounds and compositions” (The Board of Trustees of the University of Illinois, priority 2012, dated 2016).
Read-outs that look alike come from different tables or passages of the source.

Legend:
[1] = test system: mice; experiment: Assessment of toxicity in vivo; settings: mice; scale 0 to 3, or time of death
From the text: The level of toxicity was rated on a scale of 0 (no observable adverse effect) to 3 (severe toxicity, almost fatal).

[2] = Liver microsome stability assay; type: in vitro ADME; settings: rat liver microsomes, 10 μM, LC/MS
Description: FIG. 4. Liver Microsome Stability Assay. Compounds (10 μM) incubated with liver microsomes for 3 h and quenched with MeCN containing internal standard, analyzed by LC/MS (280 nm). Next, the metabolic stability of the compounds was evaluated in rat liver microsomes. The compounds were evaluated for 3 hours at 10 μM, and the metabolites were observed by LC/MS.

[3] = test system: U-937 cells (human lymphoma); experiment: 72 Hour IC50 cell death assay (sulforhodamine B); type: cell-based
Description: After the synthesis was complete, the biological activity of the compounds was evaluated.
U-937 human lymphoma cells were plated into the wells of 96 well plate at a density of 15,000 cells per well in 99 μL of RPMI 1640 growth media with 10% FBS and 1% pen-strep. To each well was added 1 μL of compound stock solutions in DMSO at varying concentrations such that the cells were treated with concentrations between 0 μM and 100 μM compound. Each concentration was tested in quintuplicate per plate. In each plate 5 wells received 20 μM doxorubicin as a positive death control and 5 wells received 1 μL of DMSO as a negative control.
After the 72 hour incubation period, the plates were analyzed using a Sulforhodamine B assay (Vichai and Kirtikara, Nat Protoc 2006, 1, 1112-1116). Specifically, to each well of the plate 25 μL of a 50% (w/v) solution of trichloroacetic acid in H2O was added and the plates were incubated for 4 hours at 4° C. The plates were then washed gently with water five times. The plates were allowed to air dry after which 100 μL of a 0.057% (w/v) Sulforhodamine B in a 1% (v/v) acetic acid solution was added to each well for 30 minutes at room temperature. The plates were gently washed 5 times with 1% (v/v) acetic acid and air dried. 200 μL of 10 mM Tris base (pH 10.4) was added to each well and the plates were placed on an orbital shaker for thirty minutes. The level of SRB was quantified fluorometrically at excitation and emission wavelengths 488 and 585 nm, respectively, on a Molecular Devices plate reader and the percent cell death calculated and normalized to the positive control (100% cell death) and the negative control (0% cell death). The percent cell death was averaged for each compound concentration and plotted as a function of compound concentration. The data were fit to a logistical dose response curve using Table curve 2D and the IC50 value was calculated. The experiment was repeated three times and the average of the calculated IC50 values was reported. The standard error of the mean (SEM) was determined and reported for the triplicate experiments.

[4] = read-out: U-937 72 h IC50 (μM), Table 1, U-937 cells, 72 h

Structure (SMILES) | Mouse Toxicity [1] | RLM 3 h % Stability [2] | IC50 [3, 4] | IC50 ([3]; U-937, 72 h, read-out: U-937 72 h IC50 (μM))
C=CCc1cccc(/C=N/NC(=O)CN2CCN(C(=O)c3ccccc3)CC2)c1O [Compound 3, N′-(3-allyl-2-hydroxybenzylidene)-2-(4-benzoylpiperazin-1-yl)acetohydrazide] | 3 | 89 ± 4% | 12.1 ± 1.3 µM | –
C=CCc1cccc(/C=N/NC(=O)CN2CCN(Cc3ccc(C#N)cc3)CC2)c1O [Compound 4, N′-(3-allyl-2-hydroxybenzylidene)-2-(4-(4-cyanobenzyl)piperazin-1-yl)acetohydrazide] | 1 | 48 ± 2% | 13.7 ± 0.9 µM | –
C=CCc1cccc(/C=N/NC(=O)CN2CCN(C(=O)c3ccc(C#N)cc3)CC2)c1O [Compound 5, N′-(3-allyl-2-hydroxybenzylidene)-2-(4-(4-cyanobenzoyl)piperazin-1-yl)acetohydrazide] | death >72 h (greater than 72 hours post-treatment) | 90 ± 4% | 13.1 ± 3.7 µM | –
C=CCc1cccc(/C=N/NC(=O)CN2CCN(Cc3ccc(F)cc3)CC2)c1O [Compound 6, N′-(3-allyl-2-hydroxybenzylidene)-2-(4-(4-fluorobenzyl)piperazin-1-yl)acetohydrazide] | 3 | 31 ± 1% | 11.1 ± 2.1 µM | –
C=CCc1cccc(/C=N/NC(=O)CN2CCN(Cc3ccc(C(F)(F)F)cc3)CC2)c1O [Compound 8, N′-(3-allyl-2-hydroxybenzylidene)-2-(4-(4-(trifluoromethyl)benzyl)piperazin-1-yl)acetohydrazide] | – | 16 ± 1% | – | –
C=CCc1cccc(/C=N/NC(=O)CN2CCN(C(=O)c3ccc(C(F)(F)F)cc3)CC2)c1O [Compound 9, N′-(3-allyl-2-hydroxybenzylidene)-2-(4-(4-(trifluoromethyl)benzoyl)piperazin-1-yl)acetohydrazide] | – | 85 ± 6% | – | –
CCCc1cccc(/C=N/NC(=O)CN2CCN(Cc3ccc(S(N)(=O)=O)cc3)CC2)c1O [Compound 11, 4-((4-(2-(2-(2-hydroxy-3-propylbenzylidene)hydrazinyl)-2-oxoethyl)piperazin-1-yl)methyl)benzenesulfonamide] | – | 61 ± 2% | – | –
CCCc1cccc(/C=N/NC(=O)CN2CCN(C(=O)c3ccccc3)CC2)c1O [Compound 12, 2-(4-benzoylpiperazin-1-yl)-N′-(2-hydroxy-3-propylbenzylidene)acetohydrazide] | – | 71 ± 3% | 9.4 ± 1.3 µM | –
CCCc1cccc(/C=N/NC(=O)CN2CCN(Cc3ccc(C#N)cc3)CC2)c1O [Compound 13, 2-(4-(4-cyanobenzyl)piperazin-1-yl)-N′-(2-hydroxy-3-propylbenzylidene)acetohydrazide] | – | 30 ± 2% | 9 ± 1.2 µM | –
CCCc1cccc(/C=N/NC(=O)CN2CCN(C(=O)c3ccc(C#N)cc3)CC2)c1O [Compound 14, 2-(4-(4-cyanobenzoyl)piperazin-1-yl)-N′-(2-hydroxy-3-propylbenzylidene)acetohydrazide] | – | 61 ± 3% | 12.8 ± 2.7 µM | –
CCCc1cccc(/C=N/NC(=O)CN2CCN(C(=O)c3ccc(F)cc3)CC2)c1O [Compound 16, 2-(4-(4-fluorobenzoyl)piperazin-1-yl)-N′-(2-hydroxy-3-propylbenzylidene)acetohydrazide] | – | 69 ± 4% | 7.3 ± 0.9 µM | –
CCCc1cccc(/C=N/NC(=O)CN2CCN(Cc3ccc(C(F)(F)F)cc3)CC2)c1O [Compound 17] | – | 15 ± 2% | – | –
CCCc1cccc(/C=N/NC(=O)CN2CCN(C(=O)c3ccc(C(F)(F)F)cc3)CC2)c1O [Compound 18, N′-(2-hydroxy-3-propylbenzylidene)-2-(4-(4-(trifluoromethyl)benzoyl)piperazin-1-yl)acetohydrazide] | – | 64 ± 1% | – | –
O=C(CN1CCN(C(=O)c2ccccc2)CC1)N/N=C/c1cc(F)ccc1O [Compound 21, 2-(4-benzoylpiperazin-1-yl)-N′-(5-fluoro-2-hydroxybenzylidene)acetohydrazide] | – | 88 ± 1% | 15.7 ± 2.6 µM | –
N#Cc1ccc(C(=O)N2CCN(CC(=O)N/N=C/c3cc(F)ccc3O)CC2)cc1 [Compound 23, 2-(4-(4-cyanobenzoyl)piperazin-1-yl)-N′-(5-fluoro-2-hydroxybenzylidene)acetohydrazide] | – | 88 ± 4% | – | 15.3 ± 1.3 µM
O=C(CN1CCN(C(=O)c2ccc(F)cc2)CC1)N/N=C/c1cc(F)ccc1O [Compound 25, N′-(5-fluoro-2-hydroxybenzylidene)-2-(4-(4-fluorobenzoyl)piperazin-1-yl)acetohydrazide] | – | 86 ± 2% | 15.3 ± 0.8 µM | –
C=CCc1cc(F)cc(/C=N/NC(=O)CN2CCN(Cc3ccc(S(N)(=O)=O)cc3)CC2)c1O [Compound 29, 4-((4-(2-(2-(3-allyl-5-fluoro-2-hydroxybenzylidene)hydrazinyl)-2-oxoethyl)piperazin-1-yl)methyl)benzenesulfonamide] | – | 89 ± 3% | – | –
C=CCc1cc(F)cc(/C=N/NC(=O)CN2CCN(Cc3ccc(C#N)cc3)CC2)c1O [Compound 31, N′-(3-allyl-5-fluoro-2-hydroxybenzylidene)-2-(4-(4-cyanobenzyl)piperazin-1-yl)acetohydrazide] | – | 65 ± 2% | 12.7 ± 2 µM | –
C=CCc1cc(F)cc(/C=N/NC(=O)CN2CCN(C(=O)c3ccc(C#N)cc3)CC2)c1O [Compound 32, N′-(3-allyl-5-fluoro-2-hydroxybenzylidene)-2-(4-(4-cyanobenzoyl)piperazin-1-yl)acetohydrazide] | – | 95 ± 4% | – | –
C=CCc1cc(F)cc(/C=N/NC(=O)CN2CCN(Cc3ccc(F)cc3)CC2)c1O [Compound 33, N′-(3-allyl-5-fluoro-2-hydroxybenzylidene)-2-(4-(4-fluorobenzyl)piperazin-1-yl)acetohydrazide] | – | 57 ± 1% | 10.3 ± 4.1 µM | –
C=CCc1cc(F)cc(/C=N/NC(=O)CN2CCN(Cc3ccc(C(F)(F)F)cc3)CC2)c1O [Compound 35, N′-(3-allyl-5-fluoro-2-hydroxybenzylidene)-2-(4-(4-(trifluoromethyl)benzyl)piperazin-1-yl)acetohydrazide] | – | 49 ± 3% | – | –
C=CCc1cc(F)cc(/C=N/NC(=O)CN2CCN(C(=O)c3ccc(C(F)(F)F)cc3)CC2)c1O [Compound 36, N′-(3-allyl-5-fluoro-2-hydroxybenzylidene)-2-(4-(4-(trifluoromethyl)benzoyl)piperazin-1-yl)acetohydrazide] | – | 90 ± 2% | – | –
CCCc1cc(F)cc(/C=N/NC(=O)CN2CCN(Cc3ccc(S(N)(=O)=O)cc3)CC2)c1O [Compound 38, 4-((4-(2-(2-(5-fluoro-2-hydroxy-3-propylbenzylidene)hydrazinyl)-2-oxoethyl)piperazin-1-yl)methyl)benzenesulfonamide] | – | 62 ± 3% | – | –
CCCc1cc(F)cc(/C=N/NC(=O)CN2CCN(Cc3ccc(C#N)cc3)CC2)c1O [Compound 40, 2-(4-(4-cyanobenzyl)piperazin-1-yl)-N′-(5-fluoro-2-hydroxy-3-propylbenzylidene)acetohydrazide] | – | 49 ± 5% | 11.2 ± 0.9 µM | –
CCCc1cc(F)cc(/C=N/NC(=O)CN2CCN(C(=O)c3ccc(C#N)cc3)CC2)c1O [Compound 41, 2-(4-(4-cyanobenzoyl)piperazin-1-yl)-N′-(5-fluoro-2-hydroxy-3-propylbenzylidene)acetohydrazide] | – | 66 ± 3% | – | –
CCCc1cc(F)cc(/C=N/NC(=O)CN2CCN(Cc3ccc(F)cc3)CC2)c1O [Compound 42, N′-(5-fluoro-2-hydroxy-3-propylbenzylidene)-2-(4-(4-fluorobenzyl)piperazin-1-yl)acetohydrazide] | – | 48 ± 1% | 7.5 ± 0.7 µM | –
CCCc1cc(F)cc(/C=N/NC(=O)CN2CCN(Cc3ccc(C(F)(F)F)cc3)CC2)c1O [Compound 44, N′-(5-fluoro-2-hydroxy-3-propylbenzylidene)-2-(4-(4-(trifluoromethyl)benzyl)piperazin-1-yl)acetohydrazide] | – | 40 ± 1% | – | –
CCCc1cc(F)cc(/C=N/NC(=O)CN2CCN(C(=O)c3ccc(C(F)(F)F)cc3)CC2)c1O [Compound 45, N′-(5-fluoro-2-hydroxy-3-propylbenzylidene)-2-(4-(4-(trifluoromethyl)benzoyl)piperazin-1-yl)acetohydrazide] | – | 64 ± 5% | – | –
